Reference: BindingDB's records for patent US20250034169 (Sunshine Lake Pharma Co., 2025)

Key:
[1] = biological target: GTPase KRas (G12D) and Son of Sevenless Homolog 1 (SOS) (Homo sapiens, UniProt P01116+Q07889, G12D); experiment: KRAS G12D/SOS1 Binding Assay
Experimental: (§1) (1) Compound was prepared with DMSO, and diluted by 3-fold gradient with DMSO.(2) 0.1 μl of serial dilutions of the compound was added to a 384-well plate.(3) 5 μl of Tag2-KRASG12D>P at a specific concentration was added to the 384-well plate, and the plate was centrifuged at 1000 rpm for 1 min.(4) Then 5 μl of Tag1-SOS1 at a specific concentration was added to the 384-well plate, and the plate was centrifuged at 1000 rpm for 1 min.(5) The plate was incubated at 25° C. for 15 min.(6) 10 μl of the mixture of anti-Tag1-Tb3+ and anti-Tag2-XL665 was added to the 384-well plate.(7) The plate was centrifuged at 1000 rpm for 1 min and incubated at 4° C. for 3 h.(8) The 665/615 nm ratio was read by a microplate reader.(9) Data analysis: The log value of the compound concentration was taken as the abscissa, and the 665/615 nm ratio was used as the ordinate, the data were analyzed by GraphPad Prism 8.0 software.

[2] = biological target: GTPase KRas [G12D]/RAF proto-oncogene serine/threonine-protein kinase (Homo sapiens, UniProt P01116+P04049, G12D); experiment: KRAS G12D/cRAF Binding Assay
Experimental: as §1, with “Tag1-cRAF” for “Tag1-SOS1”

Compound | IC50 [1] [nM] | IC50 [2] [nM]
C#Cc1c(F)ccc2cc(O)cc(-c3nc(OCCOC)c4c(N5CC6CCC(C6)C5)nc(OC[C@@]56CCCN5C[C@H](F)C6)nc4c3F)c12 [US20250034169, Compound 10] | 13.9 | 8.7
[2H]C([2H])([2H])c1nc(-c2cc(O)cc3ccc(F)c(C#C)c23)c(F)c2nc(OC[C@@]34CCCN3C[C@H](F)C4)nc(N3CC4CCC(C4)C3)c12 [US20250034169, Compound 11] | 19.8 | 9.2
C#Cc1c(F)ccc2cc(O)cc(-c3nc(C(=O)OCC)c4c(N5CC6CCC(C6)C5)nc(OC[C@@]56CCCN5C[C@H](F)C6)nc4c3F)c12 [US20250034169, Compound 13] | 11.3 | 5.1
C#Cc1c(F)ccc2cc(O)cc(-c3nc(C#CCC)c4c(N5CC6CCC(C6)C5)nc(OC[C@@]56CCCN5C[C@H](F)C6)nc4c3F)c12 [US20250034169, Compound 24] | 15.1 | 13.6
C#Cc1c(F)ccc2cc(O)cc(-c3nc(C#CC4CCCC4)c4c(N5CC6CCC(C6)C5)nc(OC[C@@]56CCCN5C[C@H](F)C6)nc4c3F)c12 [US20250034169, Compound 28] | 11.5 | 11.1
C#Cc1c(F)ccc2cc(O)cc(-c3nc(C#CCC(C)C)c4c(N5CC6CCC(C6)C5)nc(OC[C@@]56CCCN5C[C@H](F)C6)nc4c3F)c12 [US20250034169, Compound 29] | 15.9 | 14.7
C#Cc1c(F)ccc2cc(O)cc(-c3nc(C#CCCC(C)C)c4c(N5CC6CCC(C6)C5)nc(OC[C@@]56CCCN5C[C@H](F)C6)nc4c3F)c12 [US20250034169, Compound 30] | 13.4 | 8.8
C#Cc1c(F)ccc2cc(O)cc(-c3nc(C#CCCC#N)c4c(N5CC6CCC(C6)C5)nc(OC[C@@]56CCCN5C[C@H](F)C6)nc4c3F)c12 [US20250034169, Compound 31] | 34.6 | 24.6
C#Cc1c(F)ccc2cc(O)cc(-c3nc(C#C)c4c(N5CC6CC(C6)C5)nc(OC[C@@]56CCCN5C[C@H](F)C6)nc4c3F)c12 [US20250034169, Compound 41] | 31.4 | 22
C#Cc1c(F)ccc2cc(O)cc(-c3nc(C#C)c4c(N5CCC[C@@H](C)C5)nc(OC[C@@]56CCCN5C[C@H](F)C6)nc4c3F)c12 [US20250034169, Compound 43] | 24.1 | 16.3
C#Cc1c(F)ccc2cc(O)cc(-c3nc(C#C)c4c(N5CC6CCC(C6)C5)nc(OC[C@@H]5CCCN5C)nc4c3F)c12 [US20250034169, Compound 51] | 20.8 | 11.1
C#Cc1c(F)ccc2cc(O)cc(-c3nc(C#C)c4c(N5C6CCCC5CC6)nc(OCC5(CN6CCCCC6)CC5)nc4c3F)c12 [US20250034169, Compound 53] | 14.6 | 4.3
C#Cc1c(F)ccc2cc(O)cc(-c3nc(C#C)c4c(N5CC6CCC(C6)C5)nc(OCCC(F)(F)F)nc4c3F)c12 [US20250034169, Compound 55] | 14.8 | 9.8
C#Cc1c(F)ccc2cc(O)cc(-c3nc(C#C)c4c(N5CC6CCC(C6)C5)nc(OCC5CCCC5)nc4c3F)c12 [US20250034169, Compound 56] | 15.7 | 18.5

Further compounds by falling IC50 [1], results first:

IC50 [1] [nM] | IC50 [2] [nM] | Compound
36.2 | 19.1 | C#Cc1c(F)ccc2cc(O)cc(-c3nc(C#C)c4c(N5CC6CCC(C6)C5)nc(OC[C@H]5CCCN5C)nc4c3F)c12 [US20250034169, Compound 50]
29.6 | 15.2 | C#Cc1c(F)ccc2cc(O)cc(-c3nc(C#C)c4c(N5C[C@H]6CC[C@@H]5C6)nc(OC[C@@]56CCCN5C[C@H](F)C6)nc4c3F)c12 [US20250034169, Compound 44]
18.5 | 9.9 | C#Cc1nc(-c2cc(O)cc3ccc(F)c(CC)c23)c(F)c2nc(OC[C@@]34CCCN3C[C@H](F)C4)nc(N3CC4CCC(C4)C3)c12 [US20250034169, Compound 65]
16.8 | 15 | C#Cc1c(F)ccc2cc(O)cc(-c3nc(C#CCOC)c4c(N5CC6CCC(C6)C5)nc(OC[C@@]56CCCN5C[C@H](F)C6)nc4c3F)c12 [US20250034169, Compound 25]
15.7 | 6.9 | C#Cc1c(F)ccc2cc(O)cc(-c3nc(C#C)c4c(N5CC6CCC(C6)C5)nc(OC[C@]56CCCN5C[C@H](F)C6)nc4c3F)c12 [US20250034169, Compound 49]
15.2 | 7.7 | C#Cc1c(F)ccc2cc(O)cc(-c3nc(C#C)c4c(N5C6CCCC5CC6)nc(OCC5(CN(C)C)CC5)nc4c3F)c12 [US20250034169, Compound 52]
12.6 | 8.8 | C#Cc1c(F)ccc2cc(O)cc(-c3nc(OCCC(F)(F)F)c4c(N5CC6CCC(C6)C5)nc(OC[C@@]56CCCN5C[C@H](F)C6)nc4c3F)c12 [US20250034169, Compound 9]
10.3 | 9.7 | C#Cc1c(F)ccc2cc(O)cc(-c3nc(OCC)c4c(N5CC6CCC(C6)C5)nc(OC[C@@]56CCCN5C[C@H](F)C6)nc4c3F)c12 [US20250034169, Compound 12]
